These results are taken from paper PMC12715984, “Co‐cultivation and Medium Optimization: A Strategy for Discovering Fungal‐derived Protease Inhibitors” (Chemistry & Biodiversity, 2025).

≈ marks a conversion by molar mass, not a printed value. Read-outs that look alike come from different tables or passages of the source. Where only a bound is given, the exact number is not on record here.

Series [1] deals with Candida albicans (ATCC 64548). Put plainly: Antifungal broth microdilution (CLSI M27A3), MIC. It counts as cell-based. The note with it: for MIC: Candida albicans, ATCC64548, read-out: minimum inhibitory concentration (MIC). On the procedure:
The antifungal activity of compounds 1–5, 7–11 was evaluated using the broth microdilution method in 96‐well plates, following the Clinical Laboratory Standard Institute (CLSI) guidelines M27A3 [35, 36], with minor modifications. The assay was performed against Candida auris (CDC B11903), Candida parapsilosis (ATCC 22019), and Candida albicans (ATCC 64548), and based on the determination of the minimum inhibitory concentration (MIC).
Each compound was initially dissolved in DMSO at a stock concentration 100 times higher than the highest concentration tested. Working solutions were subsequently prepared in RPMI 1640 culture medium (pH 7.0), supplemented with L‐glutamine, devoid of bicarbonate, and containing phenol red as a pH indicator, to yield a 2 × concentration. Serial two‐fold dilutions were made to obtain final concentrations ranging from 3.125 to 200.00 µg/mL. Fluconazole was used as a reference antifungal control.
Aliquots of 100 µL of each 2 × test solution were dispensed into the wells of the microdilution plates. Fungal suspensions were prepared in autoclaved distilled water and adjusted to a final concentration of 5.0 × 10^3 conidia or blastoconidia/mL. After inoculation, plates were incubated at 37°C. Fungal growth was visually assessed after 24 and 48 h. […] All assays were performed in duplicate.
Background: Broth dilution looks for growth in wells or tubes with falling amounts of substance.

The target in series [2] is T1, papain (Carica papaya, UniProt P00784).
T1 construct: purchased
T1 sequence (P00784 134-345): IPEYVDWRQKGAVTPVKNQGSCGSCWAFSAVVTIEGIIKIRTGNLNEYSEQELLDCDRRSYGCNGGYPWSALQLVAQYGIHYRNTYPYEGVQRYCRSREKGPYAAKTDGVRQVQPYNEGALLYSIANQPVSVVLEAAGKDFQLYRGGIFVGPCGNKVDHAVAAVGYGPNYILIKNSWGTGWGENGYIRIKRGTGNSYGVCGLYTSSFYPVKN
Put plainly: Papain inhibition, fluorometric Z-Phe-Arg-MCA assay. It counts as biochemical. The note with it: for inhibition at 100 µM: read-out: % inhibition (100 µM). On the procedure:
Compounds 1, 2, 4, and 7–11 were tested against papain inhibitory activity. Papain served as the model cysteine protease in the protease inhibition assay. Enzyme activity was assessed via real‐time fluorometric monitoring of 7‐amino‐4‐methylcoumarin (MCA) release during substrate cleavage. Hydrolysis of the fluorogenic substrate Z‐Phe‐Arg‐MCA (ZFR‐MCA) was tracked in black 96‐well plates using a spectrofluorometer (λex/λem = 380/460 nm) (SpectraMax M3, Molecular Devices).
Each reaction well contained 5 µL papain (80 nM), 2 µL dithiothreitol (DTT, 500 mM), and 158 µL sodium acetate buffer (100 mM, pH 5.5, 5 mM EDTA). After a 5‐minute pre‐incubation at 27°C, 5 µL of test compound (dissolved in DMSO) or DMSO (negative control) was added. In the initial screening, all compounds were tested at a fixed concentration of 100 µM to evaluate their inhibitory potential. Following a second 5‐minute incubation at 27°C, 30 µL ZFR‐MCA (0.6 mM) was added, and fluorescence was recorded every 300 s using a SpectraMax M3 microplate reader (Molecular Devices). This concentration guided subsequent serial dilutions to determine the IC50 (half‐maximal inhibitory concentration).
For this, a serial dilution series was prepared from the active compounds, and the assay was conducted as previously described. Final assay conditions (200 µL/well) yielded effective compound concentrations of 100 µM to 1.56 µM for IC50 determination. Papain's molar concentration was validated via titration with the irreversible inhibitor E‐64 (positive control) from 1.0 µM to 31.25 nM. All experiments included triplicate measurements across two independent trials (total n = 6).

Another series is described as follows: Cytotoxicity assay, MTS. It counts as cell-based. Particulars: human, HFF-1, 120-hour incubation, maximum tested 64 µM. The method, then: Cytotoxicity assays: HFF‐1 fibroblasts (provided by Rio de Janeiro Cell Bank (BCRJ)) were seeded at a density of 2 × 10^3 cells per well in 100 µL of DMEM and incubated overnight at 37°C in a 5% CO2 atmosphere. Subsequently, test compounds were added in serial dilutions, followed by a 120‐hour incubation period under the same conditions. Each plate included negative controls and doxorubicin as a positive control. After incubation, 15 µL of MTS reagent (CellTiter96) was added to each well, and plates were incubated for an additional 4 h. Absorbance was measured at 490 nm using a microplate reader. The percentage of growth inhibition was calculated relative to the absorbance of the negative control wells.

Series [3] deals with T. cruzi Tulahuen lacZ strain. Put plainly: Anti-T. cruzi activity, intracellular amastigotes in HFF-1 cells, beta-galactosidase/CPRG readout. Particulars: Trypanosoma cruzi, HFF-1, 120 h.
Excerpt: The evaluation utilized the genetically modified T. cruzi Tulahuen lacZ strain, engineered to express the lacZ gene encoding β‐galactosidase. Viable intracellular parasites express this enzyme, which hydrolyzes the substrate chlorophenol red‐β‐D‐galactopyranoside (CPRG) to release chlorophenol red, a chromogenic product quantified spectrophotometrically at 570 nm. The absorbance intensity directly correlates with the number of metabolically active parasites present during the assay.
Axenic cultures of T. cruzi epimastigotes (strain MHOM/CH/00/Tulahuen C2, lacZ) were grown in LIT medium containing 10% fetal calf serum (FCS) at 28°C. During the exponential growth phase, parasites were collected via centrifugation (250 × g, 10 min), resuspended in Grace's insect medium supplemented with 10% FCS, and differentiated into metacyclic trypomastigotes over 5–14 days. Differentiated parasites were harvested and used to infect Human Foreskin Fibroblasts (HFF‐1), cultured in Dulbecco's Modified Eagle Medium (DMEM) with 10% FCS under 5% CO2 at 37°C.
For infection assays, HFF‐1 cells were plated in 96‐well plates (5 × 10⁴ cells/well) in 80 µL phenol red‐free DMEM and incubated overnight. Metacyclic trypomastigotes (5 × 10⁵ parasites/well in 20 µL) were added, followed by 24‐hour incubation. After this period, trypomastigotes differentiate into intracellular amastigotes. Non‐infective parasites were removed by replacing the medium with 100 µL fresh DMEM. Test compounds, at varying concentrations, were then applied to determine IC50 values against intracellular amastigotes, with benznidazole as the positive control. After 5 days of incubation (37°C, 5% CO2), 50 µL of 1 mM CPRG and 0.1% IGEPAL CA‐630 (a non‐ionic detergent) were added. β‐Galactosidase activity, reflecting parasite viability, induced a colorimetric shift from yellow to red, measured at 570 nm. Growth inhibition percentages were calculated relative to untreated controls. Benznidazole was used as the positive control and DMSO as the negative control.
The target in series [4] is T1, papain. Also on record: method as in PMID 32189177. Particulars: at a concentration of 50 µM, cited from earlier work.
The next series relates to bacteria. Also noted: method as in PMID 21497643. Particulars: cited from earlier work.
The subject of the next series is plant-parasitic nematode. Also noted: method as in PMID 27990770. The note with it: cited from earlier work.
Another series concerns Cryphonectria parasitica. Also noted: method as in PMID 11052720. Particulars: against Cryphonectria parasitica; cited from earlier work.
Series [5] addresses T1, papain. Also noted: method as in earlier work. The note with it: at 200 µM; cited from earlier work.

On to `CSC12CC3=CC=CC(OC(C)=O)C3N1C(=O)C1(SC)CC3=CC=CC(OC(C)=O)C3N1C2=O` (centres unmarked) [Compound 4, haematocin], for which, in [1], the MIC amounted to 100 µg/mL (≈ 199 µM). At papain [2], the IC50 (usually the concentration needed to halve the response being measured) amounted to 47.7 µM and the inhibition (usually the change of the read-out against control, counted positive when it falls) at 100 µM was determined as 76.6%. For the same compound, the CC50 (commonly the concentration that lowers cell viability or growth by half) at 120 h in “Cytotoxicity assay, MTS” is over 64 µM. In addition, in series [3], inhibition was half-maximal at 13.3 ± 1 µM (IC50).

`CC(C)C[C@@H]1NC(=O)[C@@H]2CCCN2C1=O` [cyclo(L‐Leu‐L‐Pro) diketopiperazine]: the papain inhibition at papain [4] (50 µM) is given as 3%.

`CCCCc1ccc(C(=O)[O][Mg][O]C(=O)c2ccc(CCCC)cn2)nc1` [Compound 2, magnesium complex of fusaric acid]: the MIC in series [1] came out at 50 µg/mL. Besides, the IC50 amounted to 17.5 µM at papain [2] (papain) and 12.2 ± 0.4 µM in [3]. Also, the inhibition at 100 µM on papain [2] was 94 ± 7.9%. The compound further came in with a CC50 at 120 h in the series “Cytotoxicity assay, MTS” of over 64 µM.

As for `C[C@@H](O)CCc1ccc(C(=O)O)nc1` [Compound 7, (R)‐fusarinolic acid], in “Cytotoxicity assay, MTS” (HFF-1 fibroblasts), the half-maximal cytotoxic concentration (CC50) at 120 h was over 64 µM. The antibacterial activity entry in the series on bacteria is “no significant activity”. In the series with plant-parasitic nematode, the plant-parasitic nematode activity result is recorded as “no significant activity”. The compound also returned an IC50 in [3] of 60.07 ± 0.6 µM.

In the case of `CC(C)=CCCC(C)(O)C1CCC(C)(O)C1C` (centres unmarked) [Compound 8, cyclonerodiol], the inhibition at 100 µM at papain [2] (papain, compound at 100 µM) is 89%. Moreover, the IC50 on papain [2] (papain, read-out: IC50) stood at 25.9 µM; in [3] it was 22.7 ± 1.1 µM. For the same compound, the CC50 at 120 h in the series “Cytotoxicity assay, MTS” (HFF-1 fibroblasts) is over 64 µM. The antifungal activity result in the series with Cryphonectria parasitica is “weak antifungal activity”.

In the case of “Iron complex of fusaric acid [Compound 1]”, the “minimum inhibitory concentration (MIC)” value in series [1] (C. albicans, tested 3.125 to 200.00 µg/mL) was determined as 100 µg/mL. Besides, the “% inhibition (100 µM)” value on papain [2] (papain, compound at 100 µM, 100 µM) turned out to be 88.6%. In addition, the IC50 on papain [2] (papain, read-out: IC50) was 14.1 µM.

The compound `CCCCc1ccc(C(=O)O)nc1` [Compound 5, fusaric acid] came in with a CC50 at 120 h in “Cytotoxicity assay, MTS” of over 64 µM. In addition, on papain [5], the papain inhibition is 58%. This compound also registered an IC50 in [3] of 20.9 ± 0.3 µM.

`O=C(Cn1ccnc1[N+](=O)[O-])NCc1ccccc1` [Benznidazole, reference compound]: in [3], 2.24 ± 0.9 µM corresponded to half-maximal inhibition (IC50).

For `CC(C)C[C@H](NC(=O)[C@H]1O[C@@H]1C(=O)O)C(=O)NCCCCN=C(N)N` [E‐64, reference compound], at papain [2] (papain, positive control, read-out: IC50), the IC50 was found to be 0.0072 µM.

Regarding `CC(C)[C@@H]1NC(=O)[C@@H]2CCCN2C1=O` [cyclo(L‐Val‐L‐Pro)], the papain inhibition on papain [4] was 10%.
